In US10828265B2, “Formulations of propranolol and analogs as an amorphous melt or ionic liquid for transdermal drug delivery” (The Regents of the University of California, priority 2016, dated 2020):
Counter-ions that a name gives are not always drawn. Like-named read-outs stand apart in the source and are kept apart here.

Experiments:
[1] = system: Mat Tek Epiderm FT human skin equivalent tissues; details: for Dose-normalized skin irritation potential, fold lower than 0.1 M PFB EtOH formulation: interleukin-1α release divided by applied dose, neat melt, FIG. 8A; for skin irritation potential normalized to delivered dose in acceptor, fold lower than 0.1 M PFB EtOH formulation: interleukin-1α release divided by delivered dose in acceptor compartment, FIG. 8B
Protocol: Evaluation was conducted using human skin equivalent tissues (Epiderm™) with a human interleukin-1α ELISA kit. Interleukin-1α release has been previously established as an indicator for skin irritation and affords evaluating irritation without requiring removal of the test formulation from skin tissues, a potentially damaging process to the tissues when studying viscous formulations. 0.1 M and 0.2 M PFB EtOH formulations, positive control (5% sodium dodecyl sulfate (SDS) in PBS), negative control (PBS) and EtOH solvent control were also evaluated.
Skin irritation was assessed by measuring interleukin-1α release from Mat Tek Epiderm FT™ human skin equivalent tissues (MatTek Corporation, Ashland, Mass.). Experiments were performed according to the manufacturer's recommended protocol. Briefly, new media was added immediately before application of formulations. Formulations were applied to the surface of the tissues for 4 hours. After 4 hours, 200 μL of media was collected for interleukin-la analysis. Interleukin-la release was quantified using a Human Interleukin-la ELISA Kit (Pierce Biotechnology Inc., Rockford, Ill.) according to the manufacturer's recommended Protocol. ThermoFisher Scientific. Instructions of Human IL-1α ELISA Kit. Retrieved from https://www.thermofisher.com/order/catalog/product/EH2IL1A (2014). Absorbance of blank (0 pg/mL Interleukin-1α) was subtracted from absorbance of each sample.

[2] = Partition coefficient n-octanol/water (log Po/w); assay type: physicochemical
Protocol: Lipophilicity of propranolol melts or ionic liquids, measured as partition coefficient n-octanol/water (log Po/w), varied depending on the carbon chain length of the counter species (FIG. 6C). The log Po/w of propranolol melts or ionic liquids ranged from 0.76 to 1.76, and were between −0.41 of PRL:Cl and 3.12 of PFB.
A 250 mL volume of n-octanol was shaken with 25 mL of ddH2O and left overnight to obtain n-octanol saturated with water. A 250 mL volume of ddH2O was shaken with 25 mL of n-octanol and left overnight to obtain water saturated with n-octanol. Ten milliliters of saturated n-octanol was added to each 3H-labeled propranolol melt or ionic liquid (6-10 mg) in a 20-mL scintillation vial followed by stirring until the melt or ionic liquid was dissolved completely. 10 mL saturated water was shaken with 10 mL of the 3H-labeled propranolol melt or ionic liquid solution in octanol for 1 minute, followed by 2 minutes of gentle centrifugation (1000 rpm, 74×g, Allegra X-12R centrifuge, FX6100 rotor, Beckman Coulter, Brea, Calif.) to obtain clean separation of the two layers. […] The partition coefficient n-octanol/water was calculated as the logarithm of the concentration of propranolol in octanol divided by the concentration of propranolol in water.

[3] = neat melt, SD of three measurements in parentheses
Protocol: Standard deviations of three measurements are provided in parentheses.
Viscosity was measured using 1-mL samples with a LC-ARES Test Station (TA Instruments, New Castle, Del.) and a cone (diameter: 25 mm; angle: 0.1 rad). The cone rotation rate was 10 s^−1 and viscosity was measured three times per sample at 25° C. and 37° C. Differential scanning calorimetry (DSC) was performed with a Q2000 DSC with 50 position autosampler (TA Instruments, New Castle, Del.). Sample size was 9-10 mg, and was weighed in an aluminum hermetic pan. Samples were heated from room temperature to 120° C. under N2 atmosphere followed by cooling to […] and subsequent heating back to 120° C. with a ramp rate of 10° C. per minute.

[4] = Molar conductivity (neat, in water, in n-octanol); assay type: physicochemical; details: for molar conductivity in n-octanol: 1.32 mM PRL:C8, 1.24 mM PRL:C5, mean±SD; for molar conductivity in water in comparison to sodium chloride: 25° C. and 37° C., FIGS. 9A and 9B
[5] = porcine skin, 24 hours, 37° C.
Protocol: Franz diffusion cells were used to assess the skin transport of propranolol melts or ionic liquids using a previously established protocol described in Karande, P., et al., Discovery of transdermal penetration enhancers by high-throughput screening. […] Briefly, the acceptor chamber was filled with degas sed PBS or 4% bovine serum albumin in PBS and a small stir bar was added. Thawed porcine skin was clamped in place between the acceptor and donor chambers with the SC facing up. Care was taken to ensure no air bubbles resided in the acceptor chamber, and skin was stretched to minimize the presence of furrows. PFB solution in either IPM or EtOH was spiked with the 3H-labeled propranolol free base solution to a final concentration of 10 μCi/mL. Alternatively, 3H-labeled propranolol melts or ionic liquids were used as donor formulations. […] Samples from each tissue layer and acceptor solution were dissolved in Solvable (Perkin Elmer, Waltham, Mass.) overnight, and the amount of propranolol was measured using a scintillation counter and standard solution of radiolabeled donors. […] Furthermore, permeability (Kp) was calculated using the following equation, where Jss is the steady-state flux calculated as the slope of the linear portion of the plot of the cumulative amount permeated per unit area versus time, and C is propranolol concentration in donor. […]

[6] = Solubility in organic and aqueous solvents; assay type: physicochemical

Structure (SMILES) | partition coefficient n-octanol/water (log Po/w) [2] | Propranolol Melt Viscosity ([3]; 25° C.) | Propranolol Melt Viscosity ([3]; 37° C.) | molar conductivity in n-octanol ([4]; 25° C.) [S cm^2/mol] | molar conductivity in n-octanol ([4]; 37° C.) [S cm^2/mol] | molar conductivity in water in comparison to sodium chloride ([4]; water) | Dose-normalized skin irritation potential, fold lower than 0.1 M PFB EtOH formulation ([1]; 4 hours) [fold] | skin irritation potential normalized to delivered dose in acceptor, fold lower than 0.1 M PFB EtOH formulation [1] [fold] | other results
CCCCCCCCCCCCOS(=O)(=O)[O-].[Na+] [5% SDS in PBS, Sodium dodecyl sulfate, reference compound] |  |  |  |  |  |  |  |  | Interleukin-1α release (irritation) ([1]; 4 hours, FIG. 14A): highest amount of irritation
CC(C)NCC(O)COc1cccc2ccccc12 (stereo not shown) [PFB, propranolol free base] | 3.12 |  |  |  |  |  |  |  | 
CC(C)NCC(O)COc1cccc2ccccc12.CCCCCOC(=O)CC(C(=O)OCCCCC)S(=O)(=O)O (stereo not shown) [PRL:C5, propranolol diamyl sulfosuccinate] |  | 59.5 (1.6) Pa s | 14.7 (0.2) Pa s | 0.35±0.01 | 0.40±0.01 | much lower molar conductivity | 1.7 | 3.7 | 
CC(C)NCC(O)COc1cccc2ccccc12.CCCCCCOC(=O)CC(C(=O)OCCCCCC)S(=O)(=O)O (stereo not shown) [PRL:C6, propranolol dihexyl sulfosuccinate] |  | 1889.4 (325.2) Pa s | 180.9 (10.8) Pa s |  |  |  |  |  | 
CC(C)NCC(O)COc1cccc2ccccc12.CCCCC(CC)COC(=O)CC(C(=O)OCC(CC)CCCC)S(=O)(=O)O (stereo not shown) [PRL:C8, propranolol dioctyl sulfosuccinate] |  | 70.4 (0.9) Pa s | 16.9 (0.1) Pa s | 0.49±0.01 | 0.51±0.01 | much lower molar conductivity | 11 | 40 | amount of propranolol delivered into skin layers and acceptor [5]: delivery enhancement into each layer; skin permeability (flux normalized by applied dose) [5]: highest permeability among analog melts or ionic liquids; molar conductivity in water, fold lower than PRL:C5 ([4]; water, 37° C., concentrations >1 mM): ~10 fold; difference in skin irritation potential between PRL:C8 and PRL:C5 ([1]; dose-normalized, FIGS. 8A and 8B): ~10 fold
CC(C)NCC(O)COc1cccc2ccccc12 (stereo not shown) [PRL:Cl, propranolol hydrochloride] | −0.41 |  |  |  |  |  |  |  | solubility ([6]; methanol, organic solvent or mixture, read-out: solubility in methanol): 510 mM; solubility ([6]; water, read-out: solubility in water): 170 mM
